Earlier results as cited in US20120141611A1, “METHODS AND COMPOSITIONS USING ERGOTHIONEINE TO TREAT A VARIETY OF HEALTH RELATED FACTORS” (Oxis International Inc., priority 2010, published 2012).

How the values were obtained:
[1] = 537 osteoarthritis patients, after 27 weeks; cited from earlier work
[2] = people taking vitamin C supplements, 1,032 subjects; cited from earlier work
[3] = single elderly person, stable seven years later; cited from earlier work
intestinal polyps = details: mouse, in vivo; cited from earlier work

hyaluronic acid
Joint pain [1]: significantly reduce joint pain while resting and while walking

O=C1O[C@H]([C@@H](O)CO)C(O)=C1O [vitamin C]
Reduced likelihood of developing osteoarthritis in the knee [2]: 11%

Cyanocobalamin [vitamin B12]
Dementia outcome [3]: their dementia disappeared

COc1cc(/C=C/C(=O)CC(=O)/C=C/c2ccc(O)c(OC)c2)ccc1O [curcumin]
Reduction of intestinal polyps (intestinal polyps): 75%
